In patent US8877684B2, “Pesticidal composition comprising a synthetic compound useful as nodulation agent of leguminous plants and an insecticide compound” (Bayer CropScience AG, priority 2006, dated 2014):

Key:
Phaedon cochleariae = Phaedon cochleariae test: dipped cabbage leaves infested with mustard beetle larvae; type: in vivo; details: foliar, 96 h, leaf dip, after 4 d
Method: (§1) The expected efficacy of a given combination of two compounds is calculated as follows (see Colby, S. R., “Calculating Synergistic and antagonistic Responses of Herbicide Combinations”, Weeds 15, pp. 20-22, 1967):
(§2) • X is the efficacy expressed in % mortality of the untreated control for test compound A at a concentration of m ppm respectively m g/ha; • Y is the efficacy expressed in % mortality of the untreated control for test compound B at a concentration of n ppm respectively n g/ha; • E is the efficacy expressed in % mortality of the untreated control using the mixture of A and B at m and n ppm respectively m and n g/ha; then is
(§3) If the observed insecticidal efficacy of the combination is higher than the one calculated as “E”, then the combination of the two compounds is more than additive, i.e., there is a synergistic effect.
(§4) To produce a suitable preparation of active compound, 1 part by weight of active compound is mixed with the stated amount of solvent and emulsifier, and the concentrate is diluted with emulsifier-containing water to the desired concentration. Cabbage leaves (Brassica oleracea) are treated by being dipped into the preparation of the active compound of the desired concentration and are infested with larvae of the mustard beetle (Phaedon cochleariae) as long as the leaves are still moist.
(§5) After the specified period of time, the mortality in % is determined. […]

Myzus persicae = Myzus persicae test: cabbage leaves infested with green peach aphid dipped into the preparation; type: in vivo; details: foliar, 96 h, leaf dip, after 4 d
Method: as §1, §2, §3
as §4, with “oleracea) which are heavily infested by the green peach aphid (Myzus persicae)” for “oleracea)”, “concentration.” for “concentration and are infested with larvae of the mustard beetle (Phaedon cochleariae) as long as the leaves are still moist.”
as §5

**Q.** O=[N+]([O-])NC1=NCCN1Cc1ccc(Cl)nc1 [Imidacloprid] was tested. Which mortality at 20 ppm (Phaedon cochleariae) did it give?
**A.** The mortality at 20 ppm was 70%.

**Q.** And the mortality at 0.16 ppm (Myzus persicae)?
**A.** The mortality at 0.16 ppm was 10%.
